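Method: 48-hour compound exposure of cells in 96-well plates, five concentrations, linear interpolation of endpoints. TGI denotes the concentration required for complete inhibition of growth.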

Some test systems named below: CCRF-CEM leukemia; COLO 205 colon; EKVX NSCLC; HL-60(TB) leukemia; IGROV1 ovarian; MALME-3M melanoma; MDA-MB-435; NCI-H522 lung; OVCAR-5 ovarian; SK-MEL-28 melanoma; SK-MEL-5 melanoma; SK-OV-3 ovarian; SNB-75 CNS; SR leukemia; TK-10 renal; U251 CNS; HCC-2998 colon; SF-268 CNS; UACC-62 melanoma.
Holding throughout (assay): NCI anticancer screen, dose series, 48 h

As to `O=C(Nc1nnc(-c2ccc(Cl)cc2)o1)C(SC(=S)N1CCOCC1)c1ccccc1` (stereo not drawn), the TGI was over 100 µM with CCRF-CEM leukemia; 28.8 µM in the assay with COLO 205 colon; 59.7 µM in the assay with EKVX NSCLC; 25.7 µM in the assay with HL-60(TB) leukemia; over 100 µM in the assay with IGROV1 ovarian; over 100 µM in the assay with MALME-3M melanoma. Also, the TGI in the assay with MDA-MB-435 was over 100 µM; with NCI-H522 lung, 48.9 µM; in the assay with OVCAR-5 ovarian, 88.2 µM; with SK-MEL-28 melanoma, over 100 µM; in the assay on SK-MEL-5 melanoma, 26.6 µM; in the assay on SK-OV-3 ovarian it was over 100 µM. Besides, the TGI is over 100 µM with SNB-75 CNS, over 100 µM with SR leukemia, over 100 µM in the assay on TK-10 renal and 77.2 µM with U251 CNS.

Take `CC(C)OC(=O)/C=C/C(=O)O/C=C/[N+](=O)[O-]`: the TGI in the assay on COLO 205 colon is 38.3 µM; in the assay on EKVX NSCLC, over 100 µM; in the assay on HCC-2998 colon, 50.2 µM; with IGROV1 ovarian, 63 µM; in the assay on MALME-3M melanoma it was 63.7 µM; in the assay with MDA-MB-435, over 100 µM. For the same compound, the TGI is over 100 µM with OVCAR-5 ovarian; 68.7 µM in the assay with SF-268 CNS; over 100 µM in the assay on SK-MEL-28 melanoma; over 100 µM with SK-MEL-5 melanoma; over 100 µM with SK-OV-3 ovarian; 71.6 µM in the assay on SR leukemia. The TGI was over 100 µM in the assay with TK-10 renal, over 100 µM in the assay with U251 CNS and 84.7 µM in the assay on UACC-62 melanoma.

On to `CCOC1=NC(O)c2cccn2-c2sccc21` (stereo not drawn), for which the TGI with COLO 205 colon, with HCC-2998 colon, with MALME-3M melanoma, in the assay with MDA-MB-435, in the assay on NCI-H522 lung and in the assay on OVCAR-5 ovarian was over 100 µM in each case. In addition, the TGI in the assay with SF-268 CNS, with SK-MEL-28 melanoma, in the assay on SK-MEL-5 melanoma, in the assay with SK-OV-3 ovarian, with SR leukemia and in the assay with TK-10 renal was over 100 µM each time. Besides, the TGI in the assay on U251 CNS and in the assay on UACC-62 melanoma was over 100 µM in each case.

On to `CC1(C)C[C@@H]2C1CCC1(C)CC2(O)CC[C@H]1O` (stereo partly drawn), for which the TGI in the assay with CCRF-CEM leukemia, in the assay on COLO 205 colon, with EKVX NSCLC, in the assay with HL-60(TB) leukemia, in the assay on IGROV1 ovarian and in the assay on MALME-3M melanoma was over 100 µM in each case. Also, the TGI in the assay with MDA-MB-435, in the assay on NCI-H522 lung, in the assay with OVCAR-5 ovarian, in the assay with SF-268 CNS, in the assay on SK-MEL-28 melanoma and in the assay on SK-MEL-5 melanoma was over 100 µM throughout. The TGI in the assay with SK-OV-3 ovarian, in the assay with SNB-75 CNS, in the assay with SR leukemia, in the assay on TK-10 renal, in the assay with U251 CNS and with UACC-62 melanoma was over 100 µM each time.

Consider `O=C1CC(c2cccc([N+](=O)[O-])c2)C2(C(=O)NC(=O)NC2=O)C(c2cccc([N+](=O)[O-])c2)C1` (stereo not drawn), for which the TGI in the assay on CCRF-CEM leukemia was over 100 µM; with COLO 205 colon, over 100 µM; in the assay with HL-60(TB) leukemia it was over 100 µM; in the assay on IGROV1 ovarian, over 100 µM; in the assay with MALME-3M melanoma, 61.8 µM; in the assay on MDA-MB-435, over 100 µM. Also, the TGI with NCI-H522 lung is over 100 µM; in the assay on OVCAR-5 ovarian, over 100 µM; with SF-268 CNS, 84.1 µM; with SK-MEL-28 melanoma it was over 100 µM; with SK-MEL-5 melanoma, over 100 µM; with SK-OV-3 ovarian, over 100 µM. The TGI in the assay on SNB-75 CNS, in the assay on SR leukemia, with U251 CNS and in the assay with UACC-62 melanoma was over 100 µM throughout.

In the case of `CCCc1c(O)nc(Nc2nc3ccccc3[nH]2)[nH]c1=O`, the TGI in the assay on CCRF-CEM leukemia, in the assay with COLO 205 colon, in the assay with EKVX NSCLC, in the assay with HL-60(TB) leukemia, in the assay with IGROV1 ovarian and in the assay with MALME-3M melanoma was over 100 µM in each case. Also, the TGI in the assay on MDA-MB-435, with NCI-H522 lung, with OVCAR-5 ovarian, in the assay on SF-268 CNS, with SK-MEL-5 melanoma and in the assay on SK-OV-3 ovarian was over 100 µM throughout. The TGI with SNB-75 CNS, with SR leukemia, with TK-10 renal, with U251 CNS and with UACC-62 melanoma was over 100 µM in each case.

Turning to `O=C1NC2O[C@H](CNC(=O)c3cc(Br)c[nH]3)CC2(O)N1` (mixture of isomers), the TGI in the assay on COLO 205 colon, in the assay on EKVX NSCLC, with HL-60(TB) leukemia, in the assay on IGROV1 ovarian, with MALME-3M melanoma and in the assay with MDA-MB-435 was over 100 µM in each case. Moreover, the TGI in the assay on NCI-H522 lung, in the assay with OVCAR-5 ovarian, with SF-268 CNS, in the assay on SK-MEL-28 melanoma, in the assay on SK-MEL-5 melanoma and in the assay with SK-OV-3 ovarian was over 100 µM throughout. Besides, the TGI with SNB-75 CNS, in the assay on SR leukemia, in the assay with TK-10 renal, in the assay on U251 CNS and in the assay with UACC-62 melanoma was over 100 µM each time.

(Values after PubChem BioAssay (NCI).)
